Test results taken from patent US20070049593A1 (priority 2004, published 2007).
Structures can show the parent of a compound that is named as a salt.

Target: T1, HCV polymerase (Hepatitis C virus genotype 1b, UniProt P26663)
T1 construct: a region encoding NS5B (J Virol 1991 March, 65(3), 1105-13, 544 amino acids after deletion of 47 amino acids on the C-terminal); 6xHis (C); made in house; host or cells: Escherichia coli
Assay: biochemical
Set-up: species or system HCV BK strain
Conditions: not given
Procedure, shortened: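 Recombinant HCV BK-strain NS5B (C-terminal 47 aa deleted, His6-tagged, E. coli), 0.5 μg/ml, run with 5 μg/ml in vitro-transcribed RNA template (polyU/3′X), ATP/GTP/CTP 50 μM, UTP 2 μM plus [3H]UTP, pH 7.5, 25° C, 90 min. TCA-precipitated RNA counted by scintillation; IC50 from activity with vs without compound.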

T1 sequence (P26663 2420-2963): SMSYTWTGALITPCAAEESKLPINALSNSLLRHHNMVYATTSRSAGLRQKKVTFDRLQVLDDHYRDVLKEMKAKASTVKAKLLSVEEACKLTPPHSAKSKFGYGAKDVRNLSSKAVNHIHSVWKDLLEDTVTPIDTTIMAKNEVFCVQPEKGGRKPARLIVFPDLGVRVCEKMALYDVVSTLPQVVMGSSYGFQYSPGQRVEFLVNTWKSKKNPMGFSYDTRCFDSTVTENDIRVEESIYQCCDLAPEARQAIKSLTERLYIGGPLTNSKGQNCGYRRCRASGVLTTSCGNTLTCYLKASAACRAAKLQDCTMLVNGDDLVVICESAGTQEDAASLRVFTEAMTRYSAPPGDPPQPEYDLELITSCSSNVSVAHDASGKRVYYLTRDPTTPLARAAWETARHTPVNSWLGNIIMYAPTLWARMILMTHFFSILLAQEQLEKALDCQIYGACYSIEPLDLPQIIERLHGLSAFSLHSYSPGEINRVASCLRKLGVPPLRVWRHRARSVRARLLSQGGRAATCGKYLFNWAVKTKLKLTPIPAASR

For `CCN(CC)CCCCN1CCn2c(c(C3CCCCC3)c3ccc(C(=O)O)cc32)-c2ccc(C)cc21` [Example 1-493, 13-cyclohexyl-5-(4-diethylaminobutyl)-3-methyl-6,7-dihydro-5H-benzo[5,6][1,4]diazepino[7,1-a]indole-10-carboxylic-acid dihydrochloride], which IC50 is on record?
Its IC50 is less than 100 nM.

Which IC50 does the source give for `Cc1ccc2c(c1)N(CCN1CCC[C@@H](CCO)C1)CCn1c-2c(C2CCCCC2)c2ccc(C(=O)O)cc21` [Example 1-494, 13-cyclohexyl-5-{2-[(S)-3-(2-hydroxyethyl)piperidin-1-yl)ethyl}-3-methyl-6,7-dihydro-5H-benzo[5,6][1,4]diazepino[7,1-a]indole-10-carboxylic acid dihydrochloride] here?
The IC50 was less than 100 nM.

How did the IC50 turn out when `O=C(O)c1ccc2c(c1)N(CCN1CCCCC1)CCn1c-2c(C2CCCCC2)c2ccc(C(=O)O)cc21` [Example 1-495, 13-cyclohexyl-5-[2-(piperidin-1-yl)ethyl]-6,7-dihydro-5H-benzo[5,6][1,4]diazepino[7,1-a]indole-3,10-dicarboxylic acid monohydrochloride] was run?
Its IC50 is less than 100 nM.

Which IC50 does the source give for `CN1CCn2c(c(C3CCCCC3)c3ccc(C(=O)O)cc32)-c2ccc(OCCCN3CCCCC3)cc21` [Example 1-496, 13-cyclohexyl-5-methyl-3-[3-(piperidin-1-yl)propoxy]-6,7-dihydro-5H-benzo[5,6][1,4]diazepino[7,1-a]indole-10-carboxylic acid dihydrochloride] here?
The IC50 was less than 100 nM.

`O=C(O)c1ccc2c(C3CCCCC3)c3n(c2c1)CCN(CCN1CCC[C@@H](COc2ccccc2)C1)c1ccccc1-3` [Example 1-497, 13-cyclohexyl-5-[2-((R)-3-phenoxymethylpiperidin-1-yl)ethyl]-6,7-dihydro-5H-benzo[5,6][1,4]diazepino[7,1-a]indole-10-carboxylic acid dihydrochloride] was tested. Which IC50 did it give?
Its IC50 is less than 100 nM.

`CCOc1ccc2c(c1)N(CCN1CCC[C@@H](COC)C1)CCn1c-2c(C2CCCCC2)c2ccc(C(=O)O)cc21` [Example 1-499, 13-cyclohexyl-3-ethoxy-5-[2-((R)-3-methoxymethylpiperidin-1-yl)ethyl]-6,7-dihydro-5H-benzo[5,6][1,4]diazepino[7,1-a]indole-10-carboxylic acid dihydrochloride] was tested. Which IC50 did it give?
Its IC50 is less than 100 nM.

`CCOc1ccc2c(c1)N(CCN1CCCOCC1)CCn1c-2c(C2CCCCC2)c2ccc(C(=O)O)cc21` [Example 1-500, 13-cyclohexyl-3-ethoxy-5-[2-(1,4-oxazepan-4-yl)ethyl]-6,7-dihydro-5H-benzo[5,6][1,4]diazepino[7,1-a]indole-10-carboxylic acid dihydrochloride] was tested. Which IC50 did it give?
Its IC50 is less than 100 nM.

Which IC50 does the source give for `CCOc1ccc2c(c1)N(CCN1CCC(CCOC)CC1)CCn1c-2c(C2CCCCC2)c2ccc(C(=O)O)cc21` [Example 1-501, 13-cyclohexyl-3-ethoxy-5-{2-[4-(2-methoxyethyl)piperidin-1-yl]ethyl}-6,7-dihydro-5H-benzo[5,6][1,4]diazepino[7,1-a]indole-10-carboxylic acid dihydrochloride] here?
Its IC50 is less than 100 nM.

With `COCCC1CCN(CCN2CCn3c(c(C4CCCCC4)c4ccc(C(=O)O)cc43)-c3ccc(C)cc32)CC1` [Example 1-502, 13-cyclohexyl-5-{2-[4-(2-methoxyethyl)piperidin-1-yl]ethyl}-3-methyl-6,7-dihydro-5H-benzo[5,6][1,4]diazepino[7,1-a]indole-10-carboxylic acid dihydrochloride] as the molecule, how does the IC50 read?
The IC50 was less than 100 nM.

`CCN(CC)CC(O)CN1CCn2c(c(C3CCCCC3)c3ccc(C(=O)O)cc32)-c2ccc(Cl)cc21` (centres unmarked) [Example 1-503, 3-chloro-13-cyclohexyl-5-(3-diethylamino-2-hydroxypropyl)-6,7-dihydro-5H-benzo[5,6][1,4]diazepino[7,1-a]indole-10-carboxylic acid dihydrochloride] was tested. Which IC50 did it give?
Its IC50 is less than 100 nM.

Which IC50 does the source give for `CC(=O)N1CCCN(CCN2CCn3c(c(C4CCCCC4)c4ccc(C(=O)O)cc43)-c3ccc(C)cc32)CC1` [Example 1-504, 5-[2-(4-acetyl-1,4-diazepan-1-yl)ethyl]-13-cyclohexyl-3-methyl-6,7-dihydro-5H-benzo[5,6][1,4]diazepino[7,1-a]indole-10-carboxylic acid dihydrochloride] here?
Its IC50 is less than 100 nM.

How did the IC50 turn out when `Cc1ccc2c(c1)NCCn1c-2c(C2CCCCC2)c2ccc(S(N)(=O)=O)cc21` [Example 1-506, 13-cyclohexyl-3-methyl-6,7-dihydro-5H-benzo[5,6][1,4]diazepino[7,1-a]indole-10-sulfonamide] was run?
The IC50 was 100 to 1000 nM.

With `Cc1ccc2c(c1)N(CCN1CCCCC1)CCn1c-2c(C2CCCCC2)c2ccc(S(N)(=O)=O)cc21` [Example 1-507, 13-cyclohexyl-3-methyl-5-[2-(piperidin-1-yl)ethyl]-6,7-dihydro-5H-benzo[5,6][1,4]diazepino[7,1-a]indole-10-sulfonamide dihydrochloride] as the molecule, how does the IC50 read?
The IC50 was 100 to 1000 nM.

How did the IC50 turn out when `COC[C@@H]1CCCN(CCN2CCn3c(c(C4CCCCC4)c4ccc(C(=O)O)cc43)-c3ccc(OC)cc32)C1` [Example 1-508, 13-cyclohexyl-3-methoxy-5-[2-((R)-3-methoxymethylpiperidin-1-yl)ethyl]-6,7-dihydro-5H-benzo[5,6][1,4]diazepino[7,1-a]indole-10-carboxylic acid dihydrochloride] was run?
Its IC50 is less than 100 nM.

How did the IC50 turn out when `COC[C@@H]1CCCN(CCN2CCn3c(c(C4CCCCC4)c4ccc(C(=O)O)cc43)-c3ccc(F)cc32)C1` [Example 1-509, 13-cyclohexyl-3-fluoro-5-[2-((R)-3-methoxymethylpiperidin-1-yl)ethyl]-6,7-dihydro-5H-benzo[5,6][1,4]diazepino[7,1-a]indole-10-carboxylic acid dihydrochloride] was run?
Its IC50 is less than 100 nM.

`COc1ccc2c(c1)N(CCN1CCCOCC1)CCn1c-2c(C2CCCCC2)c2ccc(C(=O)O)cc21` [Example 1-510, 13-cyclohexyl-3-methoxy-5-[2-(1,4-oxazepan-4-yl)ethyl]-6,7-dihydro-5H-benzo[5,6][1,4]diazepino[7,1-a]indole-10-carboxylic acid dihydrochloride] was tested. Which IC50 did it give?
The IC50 was less than 100 nM.

Which IC50 does the source give for `CCN(CCCN1CCn2c(c(C3CCCCC3)c3ccc(C(=O)O)cc32)-c2ccc(C)cc21)CCOC` [Example 1-511, 13-cyclohexyl-5-{3-[N-ethyl-N-(2-methoxyethyl)amino]propyl}-3-methyl-6,7-dihydro-5H-benzo[5,6][1,4]diazepino[7,1-a]indole-10-carboxylic acid dihydrochloride] here?
Its IC50 is less than 100 nM.

Which IC50 does the source give for `CCN(CCO)CCCN1CCn2c(c(C3CCCCC3)c3ccc(C(=O)O)cc32)-c2ccc(C)cc21` [Example 1-512, 13-cyclohexyl-5-{3-[N-ethyl-N-(2-hydroxyethyl)amino]propyl}-3-methyl-6,7-dihydro-5H-benzo[5,6][1,4]diazepino[7,1-a]indole-10-carboxylic acid dihydrochloride] here?
The IC50 was less than 100 nM.

For `CCc1ccc2c(c1)N(CCCN(CC)CCCOC)CCn1c-2c(C2CCCCC2)c2ccc(C(=O)O)cc21` [Example 1-513, 13-cyclohexyl-5-{3-[N-ethyl-N-(3-methoxypropyl)amino]propyl}-3-ethyl-6,7-dihydro-5H-benzo[5,6][1,4]diazepino[7,1-a]indole-10-carboxylic acid dihydrochloride], which IC50 is on record?
Its IC50 is less than 100 nM.

Which IC50 does the source give for `CCOCC[C@@H]1CCCN(CCN2CCn3c(c(C4CCCCC4)c4ccc(C(=O)O)cc43)-c3ccc(C)cc32)C1` [Example 1-514, 13-cyclohexyl-5-{2-[(S)-3-(2-ethoxyethyl)piperidin-1-yl]ethyl}-3-methyl-6,7-dihydro-5H-benzo[5,6][1,4]diazepino[7,1-a]indole-10-carboxylic acid dihydrochloride] here?
The IC50 was less than 100 nM.

For `CCOCC[C@@H]1CCCN(CCN2CCn3c(c(C4CCCCC4)c4ccc(C(=O)O)cc43)-c3ccc(OCC)cc32)C1` [Example 1-515, 13-cyclohexyl-3-ethoxy-5-{2-[(S)-3-(2-ethoxyethyl)piperidin-1-yl]ethyl}-6,7-dihydro-5H-benzo[5,6][1,4]diazepino[7,1-a]indole-10-carboxylic acid dihydrochloride], which IC50 is on record?
The IC50 was less than 100 nM.

Which IC50 does the source give for `Cc1ccc2c(c1)N(C)CCn1c-2c(C2CCCCC2)c2ccc(S(N)(=O)=O)cc21` [Example 1-517, 13-cyclohexyl-3,5-dimethyl-6,7-dihydro-5H-benzo[5,6][1,4]diazepino[7,1-a]indole-10-sulfonamide] here?
Its IC50 is 100 to 1000 nM.

With `COC(=O)N1CCCN(CCN2CCn3c(c(C4CCCCC4)c4ccc(C(=O)O)cc43)-c3ccc(C)cc32)CC1` [Example 1-518, 13-cyclohexyl-5-[2-(4-methoxycarbonyl-1,4-diazepan-1-yl)ethyl]-3-methyl-6,7-dihydro-5H-benzo[5,6][1,4]diazepino[7,1-a]indole-10-carboxylic acid dihydrochloride] as the molecule, how does the IC50 read?
The IC50 was less than 100 nM.

How did the IC50 turn out when `O=C1CCN(CCN2CCn3c(c(C4CCCCC4)c4ccc(C(=O)O)cc43)-c3ccccc32)CCN1` [Example 1-519, 13-cyclohexyl-5-[2-(5-oxo-1,4-diazepan-1-yl)ethyl]-6,7-dihydro-5H-benzo[5,6][1,4]diazepino[7,1-a]indole-10-carboxylic acid dihydrochloride] was run?
Its IC50 is less than 100 nM.

Which IC50 does the source give for `CC(=O)NS(=O)(=O)c1ccc2c(C3CCCCC3)c3n(c2c1)CCN(CCN1CCCCC1)c1cc(C)ccc1-3` [Example 1-520, N-acetyl-13-cyclohexyl-3-methyl-5-[2-(piperidin-1-yl)ethyl]-6,7-dihydro-5H-benzo[5,6][1,4]diazepino[7,1-a]indole-10-sulfonamide dihydrochloride] here?
Its IC50 is less than 100 nM.

Same assay, conditions: 25° C., 90 min; [5,6-3H]UTP incorporation into RNA; read-out: HCV polymerase inhibitory activity IC50

Which IC50 does the source give for `CCOc1ccc2c(c1)N(CCN1CCCCCCC1)CCn1c-2c(C2CCCCC2)c2ccc(C(=O)O)cc21` [Example 1-498, 5-[2-(azocan-1-yl)ethyl]-13-cyclohexyl-3-ethoxy-6,7-dihydro-5H-benzo[5,6][1,4]diazepino[7,1-a]indole-10-carboxylic acid monohydrochloride] here?
Its IC50 is less than 100 nM.
